Experimental data taken from patent US9044429B2, “Personal care compositions comprising a methyl naphthalenyl ketone or a derivative thereof” (The Gillette Company, priority 2010, dated 2015).

Legend:
Assay type in all cases: cell-based
[1] = target: T1, human TRPV1 (Homo sapiens, UniProt Q8NER1); experiment: Pre-Incubation Test (FLIPR intracellular calcium, HEK-293 cells, capsaicin activator); conditions: test compound final 100 μM
T1 construct: expressed in transfected cells; host or cells: HEK-293
Procedure: (§1) The Pre-Incubation Test and Direct Addition Test Methods, as defined herein, can be conducted on either TRPV1 or TRPA1 receptors.
(§2) Pre-Incubation Test Method: First, the intracellular calcium ion (Ca^+2) levels in TRPV1 and TRPA1 receptors is measured. HEK-293 (human embryonic kidney) cells stably transfected with human TRPV1 or TRPA1 are grown in 15 ml growth medium [high glucose DMEM (Dulbecco's Modification of Eagle's Medium) supplemented with 10% FBS (fetal bovine serum), 100 μg/ml Penicillin/streptomycin, 100 μg/ml G418] in a 75 Cm^2 flask for 3 days at 33° C. in a mammalian cell culture incubator set at 5% CO2. Cells are detached with addition of 10 ml of PBS (phosphate buffered saline) by hand shaking gently. […] Fluo-4 is a fluorescent dye used for quantifying cellular Ca^2+ concentrations in the 100 nM to 1 microM range. […]
(§3) The pellet cells are re-suspended in 10 ml assay buffer and 90 μl aliquots (50,000 cells) per well delivered to a 96-well assay plate containing 10 μl of test compounds (1 mM in assay buffer, final concentration 100 μM) or buffer control and incubated at room temperature for 30 minutes. After 30 minutes, the plate is placed into a fluorometric imaging plate reader (FLIPR^384 from Molecular Devices) and basal fluorescence recorded (excitation wave length 488 nm and emission wave length 510 nm). […]

[2] = target: T1, human TRPV1; experiment: Direct Addition Test (FLIPR intracellular calcium, HEK-293 cells); conditions: compound final 100 μM
Procedure: as §1
(§4) Pre-Incubation Test Method: First, the intracellular calcium ion (Ca^+2) levels in TRPV1 and TRPA1 receptors is measured. HEK-293 (human embryonic kidney) cells stably transfected with human TRPV1 or TRPA1 are grown in 15 ml growth medium [high glucose DMEM (Dulbecco's Modification of Eagle's Medium) supplemented with 10% FBS (fetal bovine serum), 100 μg/ml Penicillin/streptomycin, 100 μg/ml G418] in a 75 Cm^2 flask for 3 days at 33° C. in a mammalian cell culture incubator set at 5% CO2. Cells are detached with addition of 10 ml of PBS (phosphate buffered saline) by hand shaking gently. Cells are transferred to a 50 ml tube and centrifuged at 850 rpm for 3 minutes to remove PBS. After centrifugation, a pellet of cells is formed in the bottom of the tube separating them from the supernatant solution. The supernatant is discarded and the cell pellet is suspended in 1 ml of fresh growth medium to which 5 μl (12.5 μg) of Fluo-4 AM (Molecular Probes, Inc.) calcium indicator is added and incubated for 30 min with gentle shaking on a plate shaker. Fluo-4 is a fluorescent dye used for quantifying cellular Ca^2+ concentrations in the 100 nM to 1 microM range. At the end of the 30 minutes, 45 ml of assay buffer [1×HBSS (Hank's Balanced Salt Solution), 20 mM HEPES (4-(2-Hydroxyethyl)-1-piperazineethanesulfonic acid)] is added to wash cells and the resulting combination is then centrifuged at 850 rpm for 3 minutes to remove excess buffer and Fluo-4 AM calcium indicator.
(§5) The pellet cells are re-suspended in 10 ml assay buffer and 90 μl aliquots (50,000 cells) per well delivered to a 96-well assay plate containing 10 μl of test compounds (1 mM in assay buffer, final concentration 100 μM) or buffer control and incubated at room temperature for 30 minutes. After 30 minutes, the plate is placed into a fluorometric imaging plate reader (FLIPR^384 from Molecular Devices) and basal fluorescence recorded (excitation wave length 488 nm and emission wave length 510 nm). […] Then 20 μl of the activators [1.8 μM Capsaicin (final concentration 300 nM) for TRPV1 or 300 μM AITC (final concentration 50 μM) for TRPA1 is added by FLIPR automatically and fluorescence recorded immediately.
(§6) Direct Addition Test Method (for determining the direct effect of test compounds on TRPV1 and TRPA1): All procedures are same as the pre-incubation test except 10 μl assay buffer instead of 10 μl test compounds in the 96-well assay plates. The fluorescence is measured immediately after addition of 20 μl of 600 μM each compound (final concentration 100 μM). […] The percentage of up-regulation or down-regulation is calculated based on the fluorescence measurement.

[3] = target: T2, human TRPA1 (Homo sapiens, UniProt O75762); experiment: as above; conditions: compound final 100 μM
T2 construct: expressed in transfected cells; host or cells: HEK-293
Procedure: as §1, §4, §5, §6

[4] = target: T2, human TRPA1; experiment: Pre-Incubation Test (FLIPR intracellular calcium, HEK-293 cells, AITC activator); conditions: test compound final 100 μM
Procedure: as §1, §2, §3

[5] = calculated from fluorescence relative to activator

T1 sequence (Q8NER1 whole entry): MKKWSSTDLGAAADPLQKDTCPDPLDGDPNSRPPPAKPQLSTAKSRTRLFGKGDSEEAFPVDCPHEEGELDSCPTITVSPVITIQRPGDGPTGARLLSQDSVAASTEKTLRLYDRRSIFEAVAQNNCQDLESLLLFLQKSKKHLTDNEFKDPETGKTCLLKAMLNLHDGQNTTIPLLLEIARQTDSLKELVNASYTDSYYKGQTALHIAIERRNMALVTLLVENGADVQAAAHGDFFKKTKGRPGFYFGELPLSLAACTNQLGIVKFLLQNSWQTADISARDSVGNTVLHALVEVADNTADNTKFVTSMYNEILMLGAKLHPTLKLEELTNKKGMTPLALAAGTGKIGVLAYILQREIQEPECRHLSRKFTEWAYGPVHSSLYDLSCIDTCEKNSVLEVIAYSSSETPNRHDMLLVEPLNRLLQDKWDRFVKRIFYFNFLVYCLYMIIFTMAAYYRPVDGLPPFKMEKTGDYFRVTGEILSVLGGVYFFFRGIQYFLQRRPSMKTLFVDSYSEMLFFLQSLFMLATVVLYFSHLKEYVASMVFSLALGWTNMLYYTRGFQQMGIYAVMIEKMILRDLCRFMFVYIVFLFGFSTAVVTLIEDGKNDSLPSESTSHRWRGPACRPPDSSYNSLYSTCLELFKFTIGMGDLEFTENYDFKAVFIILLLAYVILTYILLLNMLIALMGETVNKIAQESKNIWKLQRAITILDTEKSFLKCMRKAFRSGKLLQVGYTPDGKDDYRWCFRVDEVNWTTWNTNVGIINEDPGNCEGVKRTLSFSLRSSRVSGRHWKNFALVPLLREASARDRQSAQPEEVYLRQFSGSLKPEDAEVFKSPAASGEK
T2 sequence (O75762 whole entry): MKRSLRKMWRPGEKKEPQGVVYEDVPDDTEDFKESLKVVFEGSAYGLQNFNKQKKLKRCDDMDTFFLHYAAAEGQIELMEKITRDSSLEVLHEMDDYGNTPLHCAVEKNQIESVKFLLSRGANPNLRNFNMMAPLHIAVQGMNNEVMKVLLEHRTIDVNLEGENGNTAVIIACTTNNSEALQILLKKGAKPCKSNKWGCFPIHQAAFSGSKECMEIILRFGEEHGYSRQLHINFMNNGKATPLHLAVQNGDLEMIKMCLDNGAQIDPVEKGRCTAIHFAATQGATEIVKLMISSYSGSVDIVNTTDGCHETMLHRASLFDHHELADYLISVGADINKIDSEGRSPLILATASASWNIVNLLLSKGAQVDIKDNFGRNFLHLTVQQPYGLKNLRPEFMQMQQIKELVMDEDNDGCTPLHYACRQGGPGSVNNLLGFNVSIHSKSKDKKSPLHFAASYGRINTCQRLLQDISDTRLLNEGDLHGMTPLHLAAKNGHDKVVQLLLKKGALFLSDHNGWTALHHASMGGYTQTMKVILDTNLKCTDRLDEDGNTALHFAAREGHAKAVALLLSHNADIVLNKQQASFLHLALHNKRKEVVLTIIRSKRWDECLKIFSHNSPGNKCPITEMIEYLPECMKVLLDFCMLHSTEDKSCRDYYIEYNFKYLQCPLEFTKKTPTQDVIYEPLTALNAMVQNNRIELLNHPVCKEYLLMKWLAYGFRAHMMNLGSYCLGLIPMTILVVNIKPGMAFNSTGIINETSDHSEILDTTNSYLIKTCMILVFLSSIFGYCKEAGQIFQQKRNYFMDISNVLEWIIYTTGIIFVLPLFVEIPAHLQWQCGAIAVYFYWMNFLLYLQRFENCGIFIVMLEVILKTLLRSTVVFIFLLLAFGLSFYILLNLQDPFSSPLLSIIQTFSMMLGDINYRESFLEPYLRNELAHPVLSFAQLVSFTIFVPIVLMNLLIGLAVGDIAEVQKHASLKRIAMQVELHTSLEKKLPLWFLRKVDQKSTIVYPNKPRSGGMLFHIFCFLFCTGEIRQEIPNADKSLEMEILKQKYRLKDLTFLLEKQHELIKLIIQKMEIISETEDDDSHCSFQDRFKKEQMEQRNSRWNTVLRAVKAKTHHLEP

CC(=O)C1(C)CC2=C(CCCC2(C)C)CC1C (centres unmarked) [Iso E Super, 1-(1,2,3,4,5,6,7,8-octahydro-2,3,8,8-tetramethyl-2naphthalenyl)-ethan-1-one] was tested, and the “Fluorescence value after adding Iso E Super” value (“Fluorescence value” for short) ([1]; 30 min at room temperature, then capsaicin final 300 nM) was 2334.51 fluorescence units, the “% Regulation” value [1, 5] was 21.82% and the “% Regulation” value [2, 5] was −0.71%. For the same compound, the “Fluorescence value” value ([2]; measured immediately) was −82.62 fluorescence units, the “% Regulation” value [3, 5] was 11.53% and the “Fluorescence value” value ([3]; measured immediately) was 1386.593 fluorescence units. The “Fluorescence value” value ([4]; 30 min at room temperature, then AITC final 50 μM) was −57.37 fluorescence units and the “% Regulation” value [4, 5] was −0.40%.
